Series [1] has as its system PAR-MEL cells (malignant melanoma resisting to chemotherapeutic treatments). Put plainly: Cellular cycle analysis of PAR-MEL cells by flow cytometry. The series is classed as cell-based. The conditions noted are these: after 24 h incubation. As for the experimental part:
The cells have been resuspended in a concentration of 1×10^6/ml and incubated for different periods of time and with various doses of each substance. At the end of the incubation period the cells have been fixed in acetone/methanol 1:4, treated with 100 KU/ml of RNase and marked with propydium iodide (50 mcg/ml). The various stages of the cellular cycle have then been analyzed by means of flow cytometry with a cytometer FACscan using a suitable statistic program. As far as the effects on the cellular cycle (FIG. 8) are concerned, after only 24 h of incubation of PAR-MEL cells with C-Res and starting from a dose of 5 mcg/ml, a significant block of the cellular cycle on G1-S/G2M level can be observed, with a consequent increase in the percentage of cells in S stage and at higher doses in G1 stage. Said block remains constant for the following hours.
(In general: A flow cytometer gives signals particle by particle.)

Series [2] shares this test system. Kind of series: Cell mortality of PAR-MEL cells. The series is classed as cell-based. The conditions noted are these: 40 mcg/ml. As for the experimental part: The cells placed on a microplate in a concentration of 1×10^5/ml have been incubated with various doses of each substance and for different periods of time. At the end of the treatment cell mortality has been evaluated by a cellular count in trypan blue and/or by flow cytometry using a cytometer FACscan (Becton-Dickinson), determining the vitality of unfixed cells which have been marked with propydium iodide (PI). […] Only for the dose of 40 mcg/ml the plateau is reached after only 24 h of incubation.

Series [3] relates to HT-29 cells (colorectal adenocarcinoma). Kind of series: Apoptosis of HT-29 cells by flow cytofluorometry (PI DNA content). The series is classed as cell-based. The conditions noted are these: 5 mcg/ml, all times of incubation (24, 48, 72 h). The procedure:
The cells have been resuspended in a concentration of 1×10^6/ml and incubated for different periods of time and with various doses of each substance. At the end of the incubation period the cells have been fixed in acetone/methanol 1:4, treated with 100 KU/ml of RNase and marked with propydium iodide (50 mcg/ml). The cells have then been analyzed by means of flow cytofluorometry using a cytometer FACscan. […] For all other doses an increase of the effect related to the time of incubation can be observed.

For series [4] the test system is unchanged. Kind of series: Cell mortality of HT-29 cells. Format: cell-based. As to conditions: all doses (5-40 mcg/ml). As for the experimental part: The cells placed on a microplate in a concentration of 1×10^5/ml have been incubated with various doses of each substance and for different periods of time. At the end of the treatment cell mortality has been evaluated by a cellular count in trypan blue and/or by flow cytometry using a cytometer FACscan (Becton-Dickinson), determining the vitality of unfixed cells which have been marked with propydium iodide (PI). […] For all doses the peak of activity is detected after 48 hours of incubation.

For series [5] the test system is unchanged. Put plainly: Cell growth of HT-29 cells. The series is classed as cell-based. As to conditions: until 72 hours. As for the experimental part: (§1) During the experiments a series of cell lines originating from different types of tumors has been used. All cell lines have been grown and kept in a RPMI-1640 medium added with 10% fetal calf serum (FCS) and 1% penicillin-streptomycin. The substances according to the invention have been dissolved in dimethyl-sulfoxide (DMSO) at an initial concentration of 100 mM and added to the cell cultures in the concentrations indicated. DMSO alone has been added to control cultures. The cells placed on a microplate in a concentration of 1×10^5/ml have been incubated with various doses of each substance and for different periods of time. At the end of the treatment cell replication has been evaluated by a cellular count carried out using a Coulter Counter.

Series [6] relates to M14 cells (malignant melanoma). Put plainly: Cellular cycle analysis of M14 cells by flow cytometry. The series is classed as cell-based. The conditions noted are these: for induction of cell accumulation in stage G1/S: 72 h, lowest dose (2.5 mcg/ml). The procedure:
The cells have been resuspended in a concentration of 1×10^6/ml and incubated for different periods of time and with various doses of each substance. At the end of the incubation period the cells have been fixed in acetone/methanol 1:4, treated with 100 KU/ml of RNase and marked with propydium iodide (50 mcg/ml). The various stages of the cellular cycle have then been analyzed by means of flow cytometry with a cytometer FACscan using a suitable statistic program. […] Indeed, after only 24 h of cell incubation with C-Res and starting from a dose of 1.25 mcg/ml, a significant block of the cellular cycle on S/G2M level can be observed, with the consequent increase of the percentage of cells in S stage. Said block remains, at higher doses, constant for the following hours.

In series [7] the test system is M14 cells (malignant melanoma). Kind of series: Cell replication of M14 cells (Coulter Counter count). Format: cell-based. The conditions noted are these: for IC50: Homo sapiens, 72 h incubation, read-out: concentration inhibiting 50% of cell replication (CI50). As for the experimental part:
as §1, with “Counter. Cells belonging to the M14 tumor line (malignant melanoma) have been incubated for various periods of time with 1.25, 2.5, 5, 10, 20, 40 and 80 mcg/ml of cis-resveratrol (C-Res), or DMSO alone as far as controls are concerned.” for “Counter.”

Series [8] can be described thus: Stability of the active agent in culture medium (HPLC/GC quantification). The series is classed as physicochemical. The conditions noted are these: for halving time in culture medium: culture medium of ex. 10 (RPMI-1640, 10% FCS); for amount still present at the end of the test: culture medium of ex. 10, 72 h. As for the experimental part: As far as resveratrols are concerned, they can be obtained with two alternative techniques, HPLC or GC. For both techniques quantification is carried out with the internal standard method. The compound we have found to be optimal is trans4-hydroxy-stilbene, commercially available.
For HPLC the reference method with reverse-phase column can be applied, with detection at 310 nm for trans isomers and at 282 for cis isomer (Mattivi F. Solid phase extraction of trans-resveratrol from wines for HPLC analysis. Zeftschrift für Lebensmittel-Untersuchung und Forschung, 1993, 196, 522-525). The instrumental conditions are the same as those described above for viniferine. The coefficient of molar extinction of both glucosides is almost the same as the one of the corresponding aglycones, so that they can be determined as such after carrying out a correction for molecular weights (Mattivi et al. Isolation, characterization, and evolution in red wine vinification of resveratrol monomers, J. Agric. Food Chem., 1995, 43, 7, 1820-1823).
If a preparation for aqueous or hydroalcoholic matrixes is necessary, the injection should be preceded by a pre-purification step on reverse-phase cartridges according to Mattivi F. Solid phase extraction of trans-resveratrol from wines for HPLC analysis. Zeitschrift für Lebensmittel-Untersuchung und Forschung, 1993, 196, 522-525. In addition to what is contained in the aforesaid document, it has been verified that the method is suitable for all monomer stilbenes, both free and glucosides, and that the eluted fraction of ethyl acetate can be dried under a mild flow of nitrogen, in case it is necessary to carry out the exchange in another solvent and/or to further reduce the limits of quantification.
Said techniques can be used for instance to control the stability of the active agent in culture mediums, and therefore to support in vitro experimental models which are going to be described in the following examples. For instance, for the culture means described in ex.
During the experiments a series of cell lines originating from different types of tumors has been used. All cell lines have been grown and kept in a RPMI-1640 medium added with 10% fetal calf serum (FCS) and 1% penicillin-streptomycin.

For series [9], the system named is HT-29 cells (colorectal adenocarcinoma). Kind of series: Cellular cycle analysis of HT-29 cells by flow cytometry. The series is classed as cell-based. As to conditions: only after 48 h incubation. As for the experimental part: The cells have been resuspended in a concentration of 1×10^6/ml and incubated for different periods of time and with various doses of each substance. At the end of the incubation period the cells have been fixed in acetone/methanol 1:4, treated with 100 KU/ml of RNase and marked with propydium iodide (50 mcg/ml). The various stages of the cellular cycle have then been analyzed by means of flow cytometry with a cytometer FACscan using a suitable statistic program. For these cells the effects on the cellular cycle (FIG. 12) are evident only after 48 h of incubation starting from a dose of 10 mcg/ml and consist in a block of the cellular cycle on G1-S/G2M level.

For series [10], the system named is PAR-MEL cells (malignant melanoma resisting to chemotherapeutic treatments). Put plainly: Cell replication of PAR-MEL cells. Format: cell-based. As for the experimental part:
as §1

For series [11] the test system is unchanged. Kind of series: Apoptosis of PAR-MEL cells by flow cytofluorometry (PI DNA content). As to conditions: 40 mcg/ml, 72 h incubation. Format: cell-based. The procedure: The cells have been resuspended in a concentration of 1×10^6/ml and incubated for different periods of time and with various doses of each substance. At the end of the incubation period the cells have been fixed in acetone/methanol 1:4, treated with 100 KU/ml of RNase and marked with propydium iodide (50 mcg/ml). The cells have then been analyzed by means of flow cytofluorometry using a cytometer FACscan.

Series [12] relates to M14 cells (malignant melanoma). Kind of series: Apoptosis of M14 cells by flow cytofluorometry (PI DNA content). The series is classed as cell-based. The procedure:
The cells have been resuspended in a concentration of 1×10^6/ml and incubated for different periods of time and with various doses of each substance. At the end of the incubation period the cells have been fixed in acetone/methanol 1:4, treated with 100 KU/ml of RNase and marked with propydium iodide (50 mcg/ml). The cells have then been analyzed by means of flow cytofluorometry using a cytometer FACscan. […] Said effect is indeed particularly significant starting from a dose of 20 mcg/ml and the peak of activity can be observed after 48 h. An activity having a similar course is performed by C-Res on cell mortality (FIG. 3), even though for said parameter the percentages of cells reacting to the action of the drug are extremely higher.

≈ marks a conversion by molar mass, not a printed value.

`Oc1ccc(/C=C\c2cc(O)cc(O)c2)cc1` [C-Res, cis-resveratrol]: in series [1], the “dose from which significant block of the cellular cycle on G1-S/G2M level is observed” value is not below 5 µg/mL. Besides, the “time at which plateau of cell mortality is reached” value in [2] came out at 24 h. Besides, the “apoptosis (peaks of hypodiploidy)” value in series [3] is given as “absence of measurable peaks of hypodiploidy”. The “time of peak of activity on cell mortality” value in [4] was determined as 48 h. The “inhibition of tumor growth” value in [5] (5 and 10 mcg/ml) was “does not induce any significant effect”; in series [5] (20 mcg/ml), “partial”; in series [5] (40 mcg/ml), “complete”. In addition, the “induction of cell accumulation in stage G1/S” value in series [6] is “could induce cell accumulation in stage G1/S”. Besides, in series [6] (after 24 h incubation), the “dose from which significant block of the cellular cycle on S/G2M level is observed” value was not below 1.25 µg/mL. In addition, the IC50 in series [7] worked out at 2.7 µg/mL (≈ 11.8 µM). In series [7] (all tested doses (1.25-80 mcg/ml)), the “effect on cell growth” value is recorded as “can inhibit cell growth”. Further, the “effect on cell replication” value in [7] (dose 40 mcg/ml) was “cytotoxic activity”; in series [7] (dose range 5-20 mcg/ml), “significant cytostatic activity”; in [10] (dose 20 and 40 mcg/ml) it was “cytotoxic activity”; in [10] (dose range 5 and 10 mcg/ml), “significant cytostatic activity”. Besides, in series [8], the “halving time in culture medium” value is recorded as 38 h. In addition, the “amount still present at the end of the test” value in series [8] is reported as “about 25%”. In addition, the “dose from which block of the cellular cycle on G1-S/G2M level is evident” value in series [9] is not below 10 µg/mL. In series [11], this compound yielded a cells in apoptosis of 50%. For the same compound, the “dose from which increase in apoptotic cells is particularly significant” value in series [12] is not below 20 µg/mL. Moreover, the “time of peak of apoptotic activity” value in series [12] was 48 h.
For `Oc1ccc(/C=C/c2cc(O)cc(O)c2)cc1` [T-Res, trans-resveratrol, reference compound], in series [6], the “induction of cell accumulation in stage G1/S” value is given as “not”. In addition, in series [7], the IC50 was determined as 31.6 µg/mL (≈ 138 µM). Also, in [8], the “halving time in culture medium” value was determined as 28 h and the “amount still present at the end of the test” value is listed as “not present as such”.

The record behind these values is patent publication US20040052879A1, “Method for the extraction of pharmaceutically active products from spermatophyte plants, products thus obtained and their use in the medical field, in particular as substances with anti-tumoral activity” (priority 2000, published 2004).
